Measured values: patent US9394305B2, “Substituted imidazo[1,2-a]pyridine compounds as tropomyosin receptor kinase a (TrkA) inhibitors” (Dr. Reddy's Laboratories Ltd., priority 2014, dated 2016)

Each molecule was assayed against T1, TrkA kinase (Homo sapiens, UniProt P04629) (assay: In vitro TrkA inhibitory activity using TR-FRET assay). Details: 5 ng TrkA, 500 μM ATP, values given as bins, read-out: TrkA inhibition in-vitro IC50.
T1 construct: purchased Upstate, USA
Assay type: biochemical
Experimental: Compounds were screened in the TR-FRET assay with TrkA kinase. 5 ng of TrkA [Upstate, USA] kinase was used for assay. The compound was incubated with the kinase for 30 minutes at 20-35° C. After the incubation, substrate mix [40 nM Ultra light poly GT (Perkin Elmer, USA) and 500 μM ATP] was added. The above reaction was stopped by the addition of 40 mM EDTA after 30 minutes. The Eu-labelled antiphospho-tyrosine antibody [Perkin Elmer, USA] was added at 0.5 nM and the fluorescence emission at 615 nm/665 nm [excitation at 340 nm] was measured. The compounds were initially screened at 100 nM, 1 μM and 10 μM concentrations. The potent compounds with >25% inhibition at 1 μM of TrkA were taken for the full dose response studies. The final DMSO concentration in the assay was […]. For IC50 determination, ⅓^rd serial dilution was made from the 20 mM DMSO stock solution. 2 μl of these were transferred to the test wells containing 20 μl reaction mixture [Total reaction volume 22 μl]. The fluorescence was measured in Perkin Elmer Wallac 1420 Multilabel Counter Victor 3. The IC50 was determined by fitting the dose response data to a sigmoidal curve fitting equation using GraphPad Prism software version 5.

T1 sequence (P04629 33-796): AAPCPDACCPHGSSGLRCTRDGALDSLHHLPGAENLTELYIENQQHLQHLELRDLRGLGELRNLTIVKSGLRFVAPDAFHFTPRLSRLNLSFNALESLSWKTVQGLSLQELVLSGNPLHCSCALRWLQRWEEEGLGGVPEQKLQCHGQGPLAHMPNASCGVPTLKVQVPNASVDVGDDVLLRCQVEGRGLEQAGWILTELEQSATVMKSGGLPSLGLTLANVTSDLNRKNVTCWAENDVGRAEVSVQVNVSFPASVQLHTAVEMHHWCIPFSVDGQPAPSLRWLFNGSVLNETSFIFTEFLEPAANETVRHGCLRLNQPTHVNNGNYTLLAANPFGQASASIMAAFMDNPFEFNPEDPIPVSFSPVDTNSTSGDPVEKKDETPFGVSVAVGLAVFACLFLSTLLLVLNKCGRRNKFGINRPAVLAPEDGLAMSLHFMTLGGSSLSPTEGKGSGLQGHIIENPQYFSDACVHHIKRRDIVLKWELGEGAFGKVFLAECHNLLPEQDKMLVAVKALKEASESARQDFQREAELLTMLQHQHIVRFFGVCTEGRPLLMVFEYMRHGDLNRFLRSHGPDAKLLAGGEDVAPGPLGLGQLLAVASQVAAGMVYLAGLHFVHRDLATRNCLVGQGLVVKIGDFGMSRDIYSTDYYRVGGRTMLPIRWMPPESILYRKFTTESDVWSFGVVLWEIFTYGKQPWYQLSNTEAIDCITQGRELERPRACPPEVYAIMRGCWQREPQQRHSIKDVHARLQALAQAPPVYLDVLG

`CCN(CC)S(=O)(=O)NC(=O)c1cnc2ccc(N3C[C@@H](F)C[C@@H]3c3cc(F)ccc3O[C@@H]3CCOC3)cn12` [Example 74, N—(N,N-diethylsulfamoyl)-6-((2R,4S)-4-fluoro-2-(5-fluoro-2-(((R)-tetrahydrofuran-3-yl)oxy)phenyl)pyrrolidin-1-yl)imidazo[1,2-a]pyridine-3-carboxamide] and `CCN(CC)S(=O)(=O)NC(=O)c1cnc2ccc(N3C[C@@H](F)C[C@@H]3c3cc(F)ccc3OC3CCOCC3)cn12` [Example 95, N—(N,N-diethylsulfamoyl)-6-((2R,4S)-4-fluoro-2-(5-fluoro-2-((tetrahydro-2H-pyran-4-yl)oxy)phenyl)pyrrolidin-1-yl)imidazo[1,2-a]pyridine-3-carboxamide] cannot be ordered by IC50: no more than 50 nM for the first, no more than 50 nM for the second.

`CCN(CCF)S(=O)(=O)NC(=O)c1cnc2ccc(N3C[C@@H](F)C[C@@H]3c3cc(F)ccc3O[C@@H]3CCOC3)cn12` [Example 75, N—(N-ethyl-N-(2-fluoroethyl)sulfamoyl)-6-((2R,4S)-4-fluoro-2-(5-fluoro-2-(((R)-tetrahydrofuran-3-yl)oxy)phenyl)pyrrolidin-1-yl)imidazo[1,2-a]pyridine-3-carboxamide] and `COCCN(C)S(=O)(=O)NC(=O)c1cnc2ccc(N3C[C@@H](F)C[C@@H]3c3cc(F)ccc3O[C@@H]3CCOC3)cn12` [Example 76, 6-((2R,4S)-4-fluoro-2-(5-fluoro-2-(((R)-tetrahydrofuran-3-yl)oxy)phenyl)pyrrolidin-1-yl)-N—(N-(2-methoxyethyl)-N-methylsulfamoyl)imidazo[1,2-a]pyridine-3-carboxamide] cannot be ordered by IC50: no more than 50 nM for the first, no more than 50 nM for the second.

`CN(c1nccs1)S(=O)(=O)NC(=O)c1cnc2ccc(N3C[C@@H](F)C[C@@H]3c3cc(F)ccc3O[C@@H]3CCOC3)cn12` [Example 77, 6-((2R,4S)-4-fluoro-2-(5-fluoro-2-(((R)-tetrahydrofuran-3-yl)oxy)phenyl)pyrrolidin-1-yl)-N—(N-methyl-N-(thiazol-2-yl)sulfamoyl)imidazo[1,2-a]pyridine-3-carboxamide] and `Cc1nnc(N(C)S(=O)(=O)NC(=O)c2cnc3ccc(N4C[C@@H](F)C[C@@H]4c4cc(F)ccc4O[C@@H]4CCOC4)cn23)s1` [Example 93, 6-((2R,4S)-4-fluoro-2-(5-fluoro-2-(((R)-tetrahydrofuran-3-yl)oxy)phenyl)pyrrolidin-1-yl)-N—(N-methyl-N-(5-methyl-1,3,4-thiadiazol-2-yl)sulfamoyl)imidazo[1,2-a]pyridine-3-carboxamide] cannot be ordered by IC50: no more than 50 nM for the first, no more than 50 nM for the second.

`Cc1ccc(N(C)S(=O)(=O)NC(=O)c2cnc3ccc(N4C[C@@H](F)C[C@@H]4c4cc(F)ccc4O[C@@H]4CCOC4)cn23)nn1` [Example 78, 6-((2R,4S)-4-fluoro-2-(5-fluoro-2-(((R)-tetrahydrofuran-3-yl)oxy)phenyl)pyrrolidin-1-yl)-N—(N-methyl-N-(6-methylpyridazin-3-yl)sulfamoyl)imidazo[1,2-a]pyridine-3-carboxamide] and `CN(c1ccn(C)n1)S(=O)(=O)NC(=O)c1cnc2ccc(N3C[C@@H](F)C[C@@H]3c3cc(F)ccc3O[C@@H]3CCOC3)cn12` [Example 92, 6-((2R,4S)-4-fluoro-2-(5-fluoro-2-(((R)-tetrahydrofuran-3-yl)oxy)phenyl)pyrrolidin-1-yl)-N—(N-methyl-N-(1-methyl-1H-pyrazol-3-yl)sulfamoyl)imidazo[1,2-a]pyridine-3-carboxamide] cannot be ordered by IC50: no more than 50 nM for the first, no more than 50 nM for the second.

First: CC(C)(C)S(=O)(=O)NC(=O)c1cnc2ccc(N3CCC[C@@H]3c3cc(F)ccc3OC3CCOCC3)cn12 [Example 79, (R)—N-(tert-butylsulfonyl)-6-(2-(5-fluoro-2-((tetrahydro-2H-pyran-4-yl)oxy)phenyl)pyrrolidin-1-yl)imidazo[1,2-a]pyridine-3-carboxamide]
Second: CCN(C)S(=O)(=O)NC(=O)c1cnc2ccc(N3CCC[C@@H]3c3cc(F)ccc3OC3CCOCC3)cn12 [Example 80, (R)—N—(N-ethyl-N-methylsulfamoyl)-6-(2-(5-fluoro-2-((tetrahydro-2H-pyran-4-yl)oxy)phenyl)pyrrolidin-1-yl)imidazo[1,2-a]pyridine-3-carboxamide]
The IC50 of the first is higher: 100 to 500 nM for the first, 50 to 100 nM for the second.

`CN(c1nccs1)S(=O)(=O)NC(=O)c1cnc2ccc(N3CCC[C@@H]3c3cc(F)ccc3OC3CCOCC3)cn12` [Example 81, (R)-6-(2-(5-fluoro-2-((tetrahydro-2H-pyran-4-yl)oxy)phenyl)pyrrolidin-1-yl)-N—(N-methyl-N-(thiazol-2-yl)sulfamoyl)imidazo[1,2-a]pyridine-3-carboxamide] and `CN(c1nncs1)S(=O)(=O)NC(=O)c1cnc2ccc(N3CCC[C@@H]3c3cc(F)ccc3OC3CCOCC3)cn12` [Example 86, (R)-6-(2-(5-fluoro-2-((tetrahydro-2H-pyran-4-yl)oxy)phenyl)pyrrolidin-1-yl)-N—(N-methyl-N-(1,3,4-thiadiazol-2-yl)sulfamoyl)imidazo[1,2-a]pyridine-3-carboxamide] cannot be ordered by IC50: no more than 50 nM for the first, no more than 50 nM for the second.

`COCCN(C)S(=O)(=O)NC(=O)c1cnc2ccc(N3CCC[C@@H]3c3cc(F)ccc3OC3CCOCC3)cn12` [Example 82, (R)-6-(2-(5-fluoro-2-((tetrahydro-2H-pyran-4-yl)oxy)phenyl)pyrrolidin-1-yl)-N—(N-(2-methoxyethyl)-N-methylsulfamoyl)imidazo[1,2-a]pyridine-3-carboxamide] and `CCOCCN(C)S(=O)(=O)NC(=O)c1cnc2ccc(N3CCC[C@@H]3c3cc(F)ccc3OC3CCOCC3)cn12` [Example 83, (R)—N—(N-(2-ethoxyethyl)-N-methylsulfamoyl)-6-(2-(5-fluoro-2-((tetrahydro-2H-pyran-4-yl)oxy)phenyl)pyrrolidin-1-yl)imidazo[1,2-a]pyridine-3-carboxamide] cannot be ordered by IC50: 50 to 100 nM for the first, no more than 50 nM for the second.

`CN(c1ccccn1)S(=O)(=O)NC(=O)c1cnc2ccc(N3CCC[C@@H]3c3cc(F)ccc3OC3CCOCC3)cn12` [Example 84, (R)-6-(2-(5-fluoro-2-((tetrahydro-2H-pyran-4-yl)oxy)phenyl)pyrrolidin-1-yl)-N—(N-methyl-N-(pyridin-2-yl)sulfamoyl)imidazo[1,2-a]pyridine-3-carboxamide] and `CN(c1ccn(C)n1)S(=O)(=O)NC(=O)c1cnc2ccc(N3CCC[C@@H]3c3cc(F)ccc3OC3CCOCC3)cn12` [Example 91, (R)-6-(2-(5-fluoro-2-((tetrahydro-2H-pyran-4-yl)oxy)phenyl)pyrrolidin-1-yl)-N—(N-methyl-N-(1-methyl-1H-pyrazol-3-yl)sulfamoyl)imidazo[1,2-a]pyridine-3-carboxamide] cannot be ordered by IC50: no more than 50 nM for the first, 50 to 100 nM for the second.

`Cc1nnc(N(C)S(=O)(=O)NC(=O)c2cnc3ccc(N4CCC[C@@H]4c4cc(F)ccc4OC4CCOCC4)cn23)s1` [Example 85, (R)-6-(2-(5-fluoro-2-((tetrahydro-2H-pyran-4-yl)oxy)phenyl)pyrrolidin-1-yl)-N—(N-methyl-N-(5-methyl-1,3,4-thiadiazol-2-yl)sulfamoyl)imidazo[1,2-a]pyridine-3-carboxamide] and `Cc1ccc(N(C)S(=O)(=O)NC(=O)c2cnc3ccc(N4CCC[C@@H]4c4cc(F)ccc4OC4CCOCC4)cn23)nn1` [Example 87, (R)-6-(2-(5-fluoro-2-((tetrahydro-2H-pyran-4-yl)oxy)phenyl)pyrrolidin-1-yl)-N—(N-methyl-N-(6-methylpyridazin-3-yl)sulfamoyl)imidazo[1,2-a]pyridine-3-carboxamide] cannot be ordered by IC50: no more than 50 nM for the first, no more than 50 nM for the second.

`CCCN(C)S(=O)(=O)NC(=O)c1cnc2ccc(N3C[C@@H](F)C[C@@H]3c3cc(F)ccc3OC3CCOCC3)cn12` [Example 88, 6-((2R,4S)-4-fluoro-2-(5-fluoro-2-((tetrahydro-2H-pyran-4-yl)oxy)phenyl)pyrrolidin-1-yl)-N—(N-methyl-N-propylsulfamoyl)imidazo[1,2-a]pyridine-3-carboxamide] and `COCCN(C)S(=O)(=O)NC(=O)c1cnc2ccc(N3C[C@@H](F)C[C@@H]3c3cc(F)ccc3OC3CCOCC3)cn12` [Example 89, 6-((2R,4S)-4-fluoro-2-(5-fluoro-2-((tetrahydro-2H-pyran-4-yl)oxy)phenyl)pyrrolidin-1-yl)-N—(N-(2-methoxyethyl)-N-methylsulfamoyl)imidazo[1,2-a]pyridine-3-carboxamide] cannot be ordered by IC50: no more than 50 nM for the first, no more than 50 nM for the second.

`CN(c1ccn(C)n1)S(=O)(=O)NC(=O)c1cnc2ccc(N3CCC[C@@H]3c3cc(F)ccc3F)cn12` [Example 90, (R)-6-(2-(2,5-difluorophenyl)pyrrolidin-1-yl)-N—(N-methyl-N-(1-methyl-1H-pyrazol-3-yl)sulfamoyl)imidazo[1,2-a]pyridine-3-carboxamide] and `CN(c1ccn(C)n1)S(=O)(=O)NC(=O)c1cnc2ccc(N3C[C@@H](F)C[C@@H]3c3cc(F)ccc3OC3CCOCC3)cn12` [Example 96, 6-((2R,4S)-4-fluoro-2-(5-fluoro-2-((tetrahydro-2H-pyran-4-yl)oxy)phenyl)pyrrolidin-1-yl)-N—(N-methyl-N-(1-methyl-1H-pyrazol-3-yl)sulfamoyl)imidazo[1,2-a]pyridine-3-carboxamide] cannot be ordered by IC50: no more than 50 nM for the first, no more than 50 nM for the second.

With `CC(C)(C)S(=O)(=O)NC(=O)c1cnc2ccc(N3C[C@@H](F)C[C@@H]3c3cc(F)ccc3OC3CCOCC3)cn12` [Example 94, N-(tert-butylsulfonyl)-6-((2R,4S)-4-fluoro-2-(5-fluoro-2-((tetrahydro-2H-pyran-4-yl)oxy)phenyl)pyrrolidin-1-yl)imidazo[1,2-a]pyridine-3-carboxamide] the IC50 was 50 to 100 nM.
